Values joined by “and” are separate entries in the source; they are usually repeats but may differ in a detail not shown here. Equal entries are not always repeated. “Also recorded” adds a separate entry of the source.
Legend:
[1] = tested on: cells; conditions: straight confinement microchannels; cited from earlier work
[2] = tested on: cell invasion; conditions: together with protease inhibitors; cited from earlier work
[3] = tested on: MDA-MB-231 cells; assay: MUSIC device: cell invasion across subnucleus barriers (SNI), timelapse; assay type: cell-based, human; conditions: for ability to invade across subnucleus barriers / tight spaces: taxol (Paclitaxel)-treated MDA-MB-231 cells
Protocol: (§1) MDA-MB-231 cells were obtained from the NCl PS-OC and the ATCC. They were cultured in Leibovitz L-15 media (Life Technologies) supplemented with 10% fetal bovine serum (Atlanta Biologicals) and 1% Penicillin-Streptavidin (Life Technologies). K20T cells were obtained from the Giannakakou lab at Weill Cornell Medical College. They are a taxol-resistant derivative of MDA-MB-231 cells (K. M. Wiesen et al., Cancer Letters, 2007, 257, 227-235). They were cultured in L-15 media supplemented with 10% fetal bovine serum, 1% Penicillin-Streptavidin, and 15 nM paclitaxel (taxol) (Cytoskeleton, Inc). All cells were incubated at 37° C. without supplemented CO2.
Cells were loaded into the inlet reservoir regions at the ends of the microchannels and allowed to spontaneously migrate into the three-dimensionally confined channels. Devices with cells were incubated as in regular cell culture as described above. Timelapse experiments were performed once the cells were in the channels. For each experiment, devices were placed on top of a heating plate maintained at 37° C. Typical durations for timelapse experiments were around 1-2 days at a temporal resolution of 3.4 minutes. Cell tracking and measurements were performed by manual tracing via ImageJ. Data processing and analysis were performed via custom programs on MATLAB. The height of the microchannels used for all experiments with quantitative analysis was 10 μm. […] For statistical analysis, the Chi-squared test was used for probability measurements, and ANOVA statistics were used for all other measurements, unless otherwise specified. Error bars are standard error of the mean (s.e.m.). Standard DAPI staining was used for fluorescence imaging in FIG. 9. For cell viability in these devices, we found in a typical timelapse experiment of ˜23 hrs that less than 10% (5 out of 54) of the cells died while occupying the experimental field of view.
To develop an assay that can directionally focus the cell invasion program for high throughput quantitative analysis, we designed and fabricated a microfluidic device that induces serial dimensional modulation on the cell and nucleus scale (FIG. 3). We refer to this herein as a MUlti-staged Serial Invasion Channels (MUSIC) device. […] Then we incorporate a spatially tapering interface that connects the confinement channel to another even smaller channel (referred to as the subnucleus barrier (SNB)) with width smaller than the cell nucleus, which is one of the largest and stiffest organelles in the cell (P. Friedl et al., Current Opinion in Cell Biology, 2011, 23, 55-64). […] This device design in essence directs and reduces the 3-D invasion program into a 2-component process—1) the cell migrates in the x-direction while 2) necessarily altering its y-dimensions. Because the migration vector points in one direction (x) and the primary induced region of change is in the orthogonal direction (y), high throughput quantitative analysis can now be accomplished in 1-D, thus increasing the feasibility of experiments and enabling predetermined axes of interest. Furthermore, repeating patterns of the subnucleus barrier are placed along the length of the microchannel, enabling serial effects and multiple sampling of individual cells, therefore providing a way to elucidate the plasticity of mechanisms of invasion for each cell. In our experiments, we consider both 1) cell invasion in only the larger confinement channel region (referred to as LCI) and 2) invasion from the larger channel across the subnucleus barrier (referred to as SNI). Our device design incorporates two different lengths for the SNB—10 μm (SNB10) and 60 μm (SNB60), which are shorter and longer than a typical MDA-MB-231 cell, respectively.
To understand higher order effects of cell invasion, we first identified the nonlinearity in the cell displacement function during SNI. Then we segmented the process into 4 distinct phases and measured the time constants of each phase. […]

[4] = tested on: MDA-MB-231 cells; assay: MUSIC device: cell migration in the larger channel LC (speed, mean-squared displacement); assay type: cell-based, human
Protocol: as §1
Cells were loaded into the inlet reservoir regions at the ends of the microchannels and allowed to spontaneously migrate into the three-dimensionally confined channels. Devices with cells were incubated as in regular cell culture as described above. Timelapse experiments were performed once the cells were in the channels. For each experiment, devices were placed on top of a heating plate maintained at 37° C. Typical durations for timelapse experiments were around 1-2 days at a temporal resolution of 3.4 minutes. Cell tracking and measurements were performed by manual tracing via ImageJ. Data processing and analysis were performed via custom programs on MATLAB. The height of the microchannels used for all experiments with quantitative analysis was 10 μm. […] Standard DAPI staining was used for fluorescence imaging in FIG. 9. […]
To develop an assay that can directionally focus the cell invasion program for high throughput quantitative analysis, we designed and fabricated a microfluidic device that induces serial dimensional modulation on the cell and nucleus scale (FIG. 3). […] Because the migration vector points in one direction (x) and the primary induced region of change is in the orthogonal direction (y), high throughput quantitative analysis can now be accomplished in 1-D, thus increasing the feasibility of experiments and enabling predetermined axes of interest. […]

[5] = tested on: MDA-MB-231 cells; assay: Serial micropipette: pressure-driven transit across sequential subnucleus-scaled constrictions; assay type: cell-based, human; conditions: 10 μM taxol for 1 day
Protocol: MDA-MB-231 cells were obtained from the NCl Physical-Sciences and Oncology Center. They were cultured in Leibovitz L-15 media (Life Technologies) with 10% fetal bovine serum (Atlanta Biologicals) and 1% Penicillin-Streptavidin (Life Technologies) at 37° C. without CO2.
Devices were treated with 1% bovine serum albumin (BSA) (Sigma-Aldrich) in serum-free media (L-15) for several hours before experiments in order to prevent stiction. Additionally, cells used in experiments were resuspended in serum-free media. Cells were loaded into the inlet reservoir of the device and experiments were automatically conducted as described in the design and operations section of this paper. The device was placed and kept on a heating plate set at 37° C. Videos were recorded at 500 ms per frame under a microscope, which produced the data of the experiments. Experimental analysis and cell tracking were performed using ImageJ and custom MATLAB programs. For statistical analysis, one-way ANOVA was used to determine statistical significance. Error bars on data represent standard error of the mean (s.e.m.). For taxol experiments, cells were incubated in 10 μM taxol (Cytoskeleton, Inc.) for 1 day prior to experiments. For fluorescence experiments, NucBlue (a live nucleus counterstain that is formulated from Hoechst 33342) (Life Technologies) was used and cells were incubated in the dye in complete growth media for 15 minutes.
The device consists of parallel microchannels. Each channel contains a series of microconstrictions to serve as a serial micropipette capable of deforming objects multiple times via pressure driven flow. The larger region of the channel has a width of 15 μm, which is on the order of the size of a cell. The smaller constriction region is 3.3 μm, which is smaller than the cell nucleus, thus ensuring that the cell undergoes a substantial deformation that samples a key organelle in the cell that often limits cell squeezing in physiological landscapes due to its size and stiffness. […]

[6] = tested on: MDA-MB-231 cells; assay: Single-cell lineage drug response in parallel microfluidic channels; assay type: cell-based, human; conditions: 1 nM Paclitaxel, constant treatment, day 2 and day 6, about one week
Protocol: FIG. 26 illustrates breast cancer cells treated with 1 nM Paclitaxel at day 2 (top) and day 6 (bottom) from initial treatment, as observed in one embodiment of a microfluidic device/microfluidic system of the present invention. […] The emergence of drug resistance can therefore be identified at the single-cell and single-cell lineage level, which can provide better biological resolution and can identify the onset of resistance more quickly especially if only a rare subpopulation of the bulk cells is resistant.
To move forward, we will expand these studies to distinguish the difference in drug responsivity between individual cell lineages enabled by our cell isolation technique previously described, and we will extend the time-scale of these experiments to accommodate for the emergence of drug resistance.

[7] = tested on: MDA-MB-231 metastatic breast cancer cells; assay: Cell morphology after taxol treatment in the microfluidic device; assay type: cell-based, human
Text: FIGS. 29A-29B illustrate cancer cells treated with the chemotherapeutic taxol in embodiments of a microfluidic device and system of the present invention. […] FIG. 29B: This more extended morphology from taxol-treated cells after failed mitosis resembles the morphology of K20T cells, which are the taxol-resistant variant of the MDA-MB-231 cells.
FIGS. 29A-29B show cancer cells treated with the chemotherapeutic taxol in embodiments of a microfluidic device and system of the present invention. […] They also lose the ability to divide properly, resulting in an extensive blebbing phase followed by cytoskeletal recovery. After failed mitosis and recovery, the cells take on a different, more extended morphology, typically with more edges and extensions. This new morphology resembles the taxol-resistant variant of these cells. […] For timelapse stacks, 34 minutes elapsed between each frame.

Compound: COC(=O)Nc1nc2ccc(C(=O)c3cccs3)cc2[nH]1 [Nocodazole]
- effect on migration rates in confinement [1]: migration rates are affected

Compound: C[C@@H](N)[C@H]1CC[C@H](C(=O)Nc2ccncc2)CC1 [Y27632]
- effect on cell invasion in combination with protease inhibitors [2]: synergistic effects in preventing cell invasion

Compound: CC(=O)O[C@H]1C(=O)[C@@]2(C)[C@H]([C@H](OC(=O)c3ccccc3)[C@]3(O)C[C@H](OC(=O)[C@H](O)[C@@H](NC(=O)c4ccccc4)c4ccccc4)C(C)=C1C3(C)C)[C@]1(OC(C)=O)CO[C@@H]1C[C@@H]2O [taxol, paclitaxel]
- total invasion time across subnucleus barrier SNB10 ([3]; 16 µM): ≥ 22 h
- factor of difference in total SNI time, treated vs untreated cells ([3]; barrier 10 μm long, 16 μM taxol): > 20
- ability to invade across subnucleus barriers / tight spaces [3]: reduced ability in invading across tight spaces
- ability to invade across subnucleus barriers / tight spaces ([3]; listed as Paclitaxel): can no longer invade
- total invasion time across subnucleus barrier SNB10 ([3]; taxol-treated MDA-MB-231 cells, 16 μM taxol (printed 1604), 10 μm long barrier, lower-bound measurement, many cells not permeated by end of experiment): > 20 h
- total invasion time across subnucleus barrier SNB60 ([3]; taxol-treated MDA-MB-231 cells, 16 μM taxol (printed 1604), 60 μm long barrier, lower-bound measurement): ≥ 22 h
- factor of difference in average cell speed between treated and untreated cells ([4]; larger channel region LC, 16 μM taxol): ~2
- power-law exponent of mean-squared displacement vs. time (MSD ∝ t^x) ([4]; taxol-treated MDA-MB-231 cells in larger channel LC, n=10 cells, non-linear least squares fit): 1 and 1.014
- average speed in the larger channel LC ([4]; taxol-treated MDA-MB-231 cells, 16 μM (printed 1604), 3.4 minute time interval, n=10): 0.53 μm/min
- transit time across the first constriction ([5]; 10 μm-long constriction, about 400 pa, n=26): 550 ± 109 s
- transit times across subsequent constrictions, taxol treated vs untreated cells ([5]; constrictions 2 to 5): transit times collapse between the two cell groups
- cell length in the microchannel (cell size) ([5]; n=26): 31±2 μm
- viability and proliferation of single-cell lineages under drug [6]: many cells underwent apoptosis but a select lineage continues to propagate; also recorded: many other cells in other channels underwent apoptosis after failed cell division
- cell morphology after failed mitosis ([7]; taxol-treated cells after failed mitosis and recovery): recover a more extended morphology
- cell morphology after treatment ([7]; taxol-treated cells before failed mitosis): less extended, more rounded morphology
- effect on migration rates in confinement [1]: migration rates are affected

— patent US10168317B2, “Microfluidic device, system, and method for tracking single cells and single cell lineages” (CORNELL UNIVERSITY, priority 2012, dated 2019)
